Reference: US20240360148A1 (SUVALENT THERAPEUTICS, INC., priority 2021, published 2024)

Columns and labels:
[1] = Plasma protein binding, equilibrium dialysis, monkey plasma; assay type: in vitro ADME; details: 5 hours at 37° C., read-out: PPB % bound Monkey (converted)
Protocol: (§1) The compounds of interest were evaluated for various PK parameters. Specifically CACO permeability/efflux and plasma protein binding (PPP) were determined. Stock solutions were prepared at 10 mM in DMSO for test and reference compounds. Aliquots of the stock solution were diluted to 500× of final concentration (0.5 mM) with DMSO, then further diluted upon the addition of bank PE3-buffer to 20× of final concentration (20 μM). Then test and reference compounds were prepared in plasma at 1 μM. For 0 hour incubation: 25 μL of the plasma spiked with test and reference compounds was transferred into a 96-well sample preparation plate, and then 25 μL blank PB-buffer was added. The samples were quenched by 200 μL of IS solution to prepare [Initial]0h samples. For 5 hours incubation: 100 μL of the plasma spiking with test and reference compounds was loaded on donor side, and 100 μL of blank PB-buffer were loaded on receiver side of the equilibrium dialysis device. Samples were incubated in an air-bath shaker (60 rpm) for 5 hours at 37° C. After 5 hours incubation, 25 μL of samples (from both the donor sides and receiver sides of the dialysis apparatus) was aspirated and added into new sample preparation plates, separately. 25 μL of blank PB-buffer was added to donor side samples and 25 μL of blank plasma was added to receiver side samples to balance the matrix. The samples were quenched with 200 μL of IS solution. The assay plate was shaken at the vibrator (Hangzhou Allsheng, MX100-4A) for 10 min (600 rpm) and then centrifuged at 5,594×g for 15 min (Thermo Multifuge×3R). An aliquot of the 50 μL supernatant was taken from each well and diluted by 50 μL distilled water, then analyzed by UPLC-MS/MS.

[2] = Plasma protein binding, equilibrium dialysis, rat plasma; assay type: in vitro ADME; details: 5 hours at 37° C., read-out: PPB % bound Rat (converted)
Protocol: as §1

[3] = Caco-2 permeability/efflux; assay type: in vitro ADME; details: human, Caco-2, pH 7.4; B-A / A-B
Protocol: (§2) Caco-2 cells were obtained from American Tissue Culture Collection (Rockville, MD). The cells were maintained in Modified Eagle's medium (MEM), containing 10% heat-inactivated fetal bovine serum (FBS), and 1% non-essential amino acids, in CO2 at 37° C. Cells were seeded on polycarbonate filter inserts (Millipore, CAT #PSHT 010 R5). The cells were cultured for 21-28 days prior to the permeability experiments. The Lucifer Yellow permeability was checked before and after the assay. Compounds were dissolved at 10 mM in 100% dimethyl sulfoxide (DMSO) and diluted for studies in Hanks Balanced Salt Solution (HBSS, Invitrogen, Cat #14025-092) with 25 mM HEPES, pH 7.4. Compounds were tested at 10 µM in both the apical-to-basolateral (A-B) and basolateral-to-apical (B-A) directions, incubations were conducted at 37° C. for 90 min. At the end of incubation, samples were diluted by assay buffer, and analyzed by LC-MS/MS. The concentrations of the compounds were quantified by standard curve. The first comparator example (Comp. Ex. 1) is the chloro substituted thienodihydropyridine

Caco-2 cells = assay: Caco-2 permeability/efflux; assay type: in vitro ADME; details: 10 uM, 37° C., 90 min, pH 7.4
Protocol: as §2

[4] = system: sumoylation levels (SUMO 2/3 conjugates) in HCT-116 cells; assay: HCT-116 4 Hour Cell Assay (Western, SUMO 2/3 conjugates); assay type: cell-based; details: Homo sapiens, HCT-116, 4 h, 4 h treatment, Anti-Sumo 2-3 immunoblot, read-out: HCT-116 Western 4 h IC50 (μM) Ave
In short: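 Cells treated 4 h with 11 three-fold dilutions from 25 μM; lysed in RIPA with NEM and Benzonase. Non-reducing SDS-PAGE immunoblot with anti-SUMO 2/3 mAb, IRDye fluorescent detection; conjugate signal normalized to total protein stain, IC50 from quantified bands.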

[5] = Plasma protein binding, equilibrium dialysis, dog plasma; assay type: in vitro ADME; details: 5 hours at 37° C., read-out: PPB % bound Dog (converted)
Protocol: as §1

Row | fraction unbound at 5 h, 1 μM [1] | fraction unbound at 5 h, 1 μM [2] | efflux ratio at 90 min, 10 μM [3] | Caco-2 apparent permeability (Papp) (Caco-2 cells; apical-to-basolateral) | Caco-2 apparent permeability (Papp) (Caco-2 cells; basolateral-to-apical) | IC50 [4] [µM] | fraction unbound at 5 h, 1 μM [5] | SMILES
1 | 0.009 | 0.004 | 1 | 3.4 10^-6 cm/s | 4.1 10^-6 cm/s | 0.0974 | 0.001 | C=CC(=O)N1Cc2sc(C#N)c(C)c2[C@H](c2cccc(F)c2-c2cn(CC)nc2C(F)(F)F)C1 [Compound 222]
2 | 0.047 | 0.021 | 1 | 12.7 10^-6 cm/s | 11.6 10^-6 cm/s | 0.0953 | 0.008 | CCn1cc(-c2c(F)cccc2[C@@H]2CN(C(=O)/C=C/CN(C)C)Cc3sc(C#N)c(C)c32)c(C(F)(F)F)n1 [Example 46, (S, E)-6-(4-(dimethylamino)but-2-enoyl)-4-(2-(1-ethyl-3-(trifluoromethyl)-1 H-pyrazol-4-yl)-3-fluorophenyl)-3-methyl-4,5,6,7-tetrahydrothieno[2,3-c]pyridine-2-carbonitrile]
3 | 0.064 | 0.062 | 6 | 4 10^-6 cm/s | 21 10^-6 cm/s | 0.157 | 0.02 | CCn1cc(-c2c(F)cccc2[C@@H]2CN(C(=O)/C=C/CNC)Cc3sc(C#N)cc32)c(C(F)(F)F)n1 [Example 50]
